Data: ChEMBL document CHEMBL4387706, “Discovery of Novel Spiroindoline Derivatives as Selective Tankyrase Inhibitors” (J Med Chem, 2019)
≈ marks a conversion by molar mass, not a printed value.

How the values were obtained:
[1] = molecular target: T1, Poly [ADP-ribose] polymerase tankyrase-1 (Homo sapiens, UniProt O95271)
T1 sequence (O95271 whole entry): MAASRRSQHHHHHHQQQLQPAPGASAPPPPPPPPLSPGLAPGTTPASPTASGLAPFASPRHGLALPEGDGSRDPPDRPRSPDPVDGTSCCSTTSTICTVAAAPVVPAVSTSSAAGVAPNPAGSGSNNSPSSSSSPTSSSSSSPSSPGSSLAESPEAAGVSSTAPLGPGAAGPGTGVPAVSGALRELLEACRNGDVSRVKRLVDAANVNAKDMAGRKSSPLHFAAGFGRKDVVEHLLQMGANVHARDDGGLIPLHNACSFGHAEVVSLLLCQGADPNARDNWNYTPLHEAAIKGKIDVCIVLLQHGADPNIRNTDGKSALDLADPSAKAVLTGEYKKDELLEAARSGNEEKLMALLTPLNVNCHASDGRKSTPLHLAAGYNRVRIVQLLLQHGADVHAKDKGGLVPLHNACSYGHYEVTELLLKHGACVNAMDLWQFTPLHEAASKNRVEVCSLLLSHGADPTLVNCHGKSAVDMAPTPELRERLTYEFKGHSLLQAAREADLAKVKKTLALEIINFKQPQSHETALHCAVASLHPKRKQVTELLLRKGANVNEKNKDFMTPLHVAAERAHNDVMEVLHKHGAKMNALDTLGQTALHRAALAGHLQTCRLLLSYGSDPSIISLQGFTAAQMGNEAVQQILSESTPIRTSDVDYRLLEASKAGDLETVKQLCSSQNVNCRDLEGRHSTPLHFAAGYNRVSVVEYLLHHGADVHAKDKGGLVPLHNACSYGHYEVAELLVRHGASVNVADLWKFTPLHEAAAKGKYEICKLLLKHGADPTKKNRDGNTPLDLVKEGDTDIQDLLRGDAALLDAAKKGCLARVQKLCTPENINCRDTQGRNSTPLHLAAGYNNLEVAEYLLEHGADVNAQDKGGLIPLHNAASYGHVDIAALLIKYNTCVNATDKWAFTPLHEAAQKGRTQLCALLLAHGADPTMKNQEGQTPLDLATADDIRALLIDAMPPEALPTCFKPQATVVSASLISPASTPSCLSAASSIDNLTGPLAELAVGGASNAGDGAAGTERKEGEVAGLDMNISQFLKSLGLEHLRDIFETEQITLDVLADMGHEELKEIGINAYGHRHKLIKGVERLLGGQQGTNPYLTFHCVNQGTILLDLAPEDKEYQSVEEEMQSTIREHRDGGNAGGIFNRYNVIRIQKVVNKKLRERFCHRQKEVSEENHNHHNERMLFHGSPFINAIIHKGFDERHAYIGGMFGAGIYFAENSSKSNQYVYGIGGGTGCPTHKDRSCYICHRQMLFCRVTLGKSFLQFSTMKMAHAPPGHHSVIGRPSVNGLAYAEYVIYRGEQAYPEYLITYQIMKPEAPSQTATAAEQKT
Description: Inhibition of recombinant human N-terminal TEV cleavage site-fused/FLAG-poly his-tagged TNKS SAM-PARP domain (1024 to 1327 residues) expressed in Escherichia coli assessed as reduction in auto-PARylation preincubated for 10 mins followed by biotinylated-NAD+ addition and measured after 45 mins by ELISA

[2] = molecular target: T2, Poly [ADP-ribose] polymerase tankyrase-2 (Homo sapiens, UniProt Q9H2K2)
T2 sequence (Q9H2K2 whole entry): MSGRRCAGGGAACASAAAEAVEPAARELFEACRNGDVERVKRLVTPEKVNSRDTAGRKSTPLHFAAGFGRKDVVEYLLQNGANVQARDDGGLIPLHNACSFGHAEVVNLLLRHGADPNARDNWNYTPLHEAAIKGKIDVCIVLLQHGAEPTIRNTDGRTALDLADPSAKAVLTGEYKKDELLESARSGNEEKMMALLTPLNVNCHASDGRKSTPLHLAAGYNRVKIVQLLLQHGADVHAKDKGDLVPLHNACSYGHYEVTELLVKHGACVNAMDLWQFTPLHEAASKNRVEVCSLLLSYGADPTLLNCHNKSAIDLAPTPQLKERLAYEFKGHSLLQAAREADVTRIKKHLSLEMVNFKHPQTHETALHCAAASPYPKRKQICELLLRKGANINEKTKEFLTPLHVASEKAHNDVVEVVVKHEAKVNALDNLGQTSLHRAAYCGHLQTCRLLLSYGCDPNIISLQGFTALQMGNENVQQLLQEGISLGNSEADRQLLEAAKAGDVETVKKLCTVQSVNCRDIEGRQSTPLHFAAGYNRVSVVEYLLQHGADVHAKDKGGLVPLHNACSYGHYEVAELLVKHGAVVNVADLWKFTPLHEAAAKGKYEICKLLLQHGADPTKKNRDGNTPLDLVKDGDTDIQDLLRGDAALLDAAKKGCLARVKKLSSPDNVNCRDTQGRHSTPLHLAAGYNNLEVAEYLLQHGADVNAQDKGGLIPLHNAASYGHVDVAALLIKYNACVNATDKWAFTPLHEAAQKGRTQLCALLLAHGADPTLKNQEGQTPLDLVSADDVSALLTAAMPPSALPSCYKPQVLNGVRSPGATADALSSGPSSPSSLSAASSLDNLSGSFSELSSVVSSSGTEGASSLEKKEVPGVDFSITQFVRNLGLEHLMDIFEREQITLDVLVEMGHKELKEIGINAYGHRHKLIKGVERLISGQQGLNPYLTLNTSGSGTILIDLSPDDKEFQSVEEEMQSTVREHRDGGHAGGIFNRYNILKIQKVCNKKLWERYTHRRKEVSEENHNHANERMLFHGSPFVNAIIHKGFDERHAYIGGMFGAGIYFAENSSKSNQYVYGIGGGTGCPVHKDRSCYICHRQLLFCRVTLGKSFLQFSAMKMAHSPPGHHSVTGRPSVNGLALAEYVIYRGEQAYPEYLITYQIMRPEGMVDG
Description: Inhibition of recombinant human N-terminal TEV cleavage site-fused/FLAG-poly his-tagged TNKS2 SAM-PARP domain (613 to 1166 residues) expressed in Escherichia coli assessed as reduction in auto-PARylation preincubated for 10 mins followed by biotinylated-NAD+ addition and measured after 45 mins by ELISA

Tankyrase 1/2 = molecular target: T3, Tankyrase 1/2 (Homo sapiens, UniProt Q9H2K2+O95271)
T3 sequence (Q9H2K2 whole entry): T2 sequence (Q9H2K2 whole entry)
T3 sequence (O95271 whole entry): T1 sequence (O95271 whole entry)
Description: Inhibition of TNKS/TNKS2 (unknown origin) expressed in human DLD1 cells assessed as reduction in Wnt-signaling measured after 24 hrs by TCF-luciferase reporter gene assay

COLO 320DM = assay: cells; conditions: Homo sapiens, 96 h
Description: Antiproliferative activity against human COLO320DM cells assessed as inhibition of cell growth measured after 4 days by CellTiter-Glo assay

physchem = conditions: phosphate buffer, pH 7.4
[3] = molecular target: Poly [ADP-ribose] polymerase 1 (Homo sapiens, UniProt P09874)
Chain of Poly [ADP-ribose] polymerase 1 (P09874 whole entry): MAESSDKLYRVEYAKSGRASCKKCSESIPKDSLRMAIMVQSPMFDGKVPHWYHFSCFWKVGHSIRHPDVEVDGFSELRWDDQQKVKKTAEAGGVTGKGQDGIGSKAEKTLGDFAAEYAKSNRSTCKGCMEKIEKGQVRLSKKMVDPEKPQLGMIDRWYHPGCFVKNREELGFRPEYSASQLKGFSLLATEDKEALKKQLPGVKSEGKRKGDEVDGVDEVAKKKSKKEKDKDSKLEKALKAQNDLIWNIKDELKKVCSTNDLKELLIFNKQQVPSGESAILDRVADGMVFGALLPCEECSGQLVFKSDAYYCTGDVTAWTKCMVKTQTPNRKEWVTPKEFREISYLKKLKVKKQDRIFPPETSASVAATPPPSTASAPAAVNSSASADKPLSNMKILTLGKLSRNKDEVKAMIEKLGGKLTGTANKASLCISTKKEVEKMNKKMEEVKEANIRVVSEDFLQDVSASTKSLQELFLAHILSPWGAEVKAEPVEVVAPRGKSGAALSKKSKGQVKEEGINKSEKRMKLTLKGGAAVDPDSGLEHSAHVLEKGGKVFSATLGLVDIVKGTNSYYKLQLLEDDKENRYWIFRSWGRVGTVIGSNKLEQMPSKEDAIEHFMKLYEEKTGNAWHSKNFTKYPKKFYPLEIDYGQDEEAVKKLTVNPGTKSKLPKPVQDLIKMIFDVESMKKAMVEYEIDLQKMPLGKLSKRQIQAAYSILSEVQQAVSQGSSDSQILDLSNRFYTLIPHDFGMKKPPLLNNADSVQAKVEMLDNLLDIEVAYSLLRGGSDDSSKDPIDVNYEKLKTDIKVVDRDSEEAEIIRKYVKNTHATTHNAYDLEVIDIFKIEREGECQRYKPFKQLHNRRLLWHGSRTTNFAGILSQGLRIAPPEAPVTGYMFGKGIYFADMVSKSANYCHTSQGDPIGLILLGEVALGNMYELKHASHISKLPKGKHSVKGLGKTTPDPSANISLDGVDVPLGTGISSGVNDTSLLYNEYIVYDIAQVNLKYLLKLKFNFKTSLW
Description: Inhibition of recombinant human PARP1 expressed in Escherichia coli assessed as reduction in auto-PARylation using histone as substrate measured after 45 mins in presence of biotinylated-NAD+ by ELISA

Structure (SMILES) | IC50 [1] [nM] | IC50 [2] [nM] | IC50 (Tankyrase 1/2) [nM] | GI50 (COLO 320DM) [nM] | solubility at 1 h, 200 µM (physchem) [µg/mL] | IC50 [3] [nM]
N#Cc1cccc2c1C1(CCN(c3nc4c(c(=O)[nH]3)CCCC4)CC1)CN2 | 9.9 | 18.5 | 799 | 23600 | 69.2 (≈ 191 µM) | –
COc1ccccc1N1CCN(c2nc3c(c(=O)[nH]2)CC(F)(F)CC3)CC1 | 19.4 | 65.5 | 403 | 15500 | 0.8 (≈ 2.13 µM) | > 20000
O=c1[nH]c(N2CCC3(CC2)CNc2cc(Cl)cc(Cl)c23)nc2c1CCCC2 | 7.5 | 10.4 | 609 | 7500 | 11 (≈ 27.1 µM) | –
O=c1[nH]c(N2CCC3(CC2)CNc2cc(Cl)ccc23)nc2c1CCCC2 | 8.4 | 5.8 | 818 | 6900 | 9.2 (≈ 24.8 µM) | –
COc1cccc(N2CCN(c3nc4c(c(=O)[nH]3)CCCC4)CC2)c1 | 39.4 | 39.7 | 1066 | 14200 | 5.2 (≈ 15.3 µM) | > 20000
O=C1NC2(CCN(c3nc4c(c(=O)[nH]3)CCCC4)CC2)c2ccccc21 | 514 | 258 | > 10000 | 97700 | 70.1 (≈ 200 µM) | > 20000
COc1ccccc1N1CCN(c2nc3c(c(=O)[nH]2)CC(C)CC3)CC1 (stereo unspecified) | 1350 | 3480 | 7282 | – | 1.8 (≈ 5.08 µM) | –
O=c1[nH]c(N2CCC3(CC2)CNc2cccc(Cl)c23)nc2c1CCCC2 | 6.4 | 5.3 | 247 | 4900 | 2.6 (≈ 7.01 µM) | –
COc1cccc(N2CCN(c3nc4c(c(=O)[nH]3)CSCC4)CC2)c1 | 6.2 | 4.8 | 148 | 7400 | 1.7 (≈ 4.74 µM) | > 20000
Oc1nc(N2CCN(c3ccccc3)CC2)nc2c1CCCC2 | 135 | 58.9 | 1536 | – | 4.9 (≈ 15.8 µM) | –
COc1ccccc1N1CCN(c2nc3c(c(=O)[nH]2)CNCC3)CC1 | 7780 | 6980 | > 10000 | – | 66.4 (≈ 194 µM) | –
COc1ccc(N2CCN(c3nc4c(c(=O)[nH]3)COCC4)CC2)cc1 | 220 | 148 | 2246 | > 20000 | 6 (≈ 17.5 µM) | > 20000
COc1ccccc1N1CCC(c2nc3c(c(=O)[nH]2)CCCC3)CC1 | 14300 | 6420 | 5401 | 19600 | – | –
O=c1[nH]c(N2CCC3(CC2)NCc2ccccc23)nc2c1CCCC2 | 118 | 29.3 | 1605 | 22400 | 67 (≈ 199 µM) | > 20000
COc1ccccc1N1CCN(c2nc3c(c(=O)[nH]2)CC(C)(C)CC3)CC1 | > 20000 | > 20000 | > 10000 | – | 2.4 (≈ 6.51 µM) | –
O=c1[nH]c(N2CCC3(CC2)CNc2cc(F)ccc23)nc2c1CCCC2 | 16.7 | 7.6 | 657 | 10300 | 3.2 (≈ 9.03 µM) | –
COc1ccccc1N1CCCN(c2nc3c(c(=O)[nH]2)CCCC3)CC1 | 6010 | – | 9144 | 41900 | 69.6 (≈ 196 µM) | > 20000
COc1ccccc1N1CCN(C2=NC3CCCCCC3C(=O)N2)CC1 (stereo unspecified) | – | – | > 10000 | – | – | –
COc1ccccc1N1CCN(c2nc3c(c(=O)[nH]2)CN(C)CC3)CC1 | > 20000 | > 20000 | > 10000 | – | 69.7 (≈ 196 µM) | –
O=c1[nH]c(N2CCC3(CC2)CNc2cccc(F)c23)nc2c1CCCC2 | 4.4 | 2.8 | 72.4 | 3300 | 4.2 (≈ 11.9 µM) | –
O=c1[nH]c(N2CCC3(CC2)CNc2cc(F)cc(F)c23)nc2c1CCCC2 | 5.4 | 3.3 | 110 | 5200 | 6.3 (≈ 16.9 µM) | –

Further lines, results first:

IC50 [1] [nM] | IC50 [2] [nM] | IC50 (Tankyrase 1/2) [nM] | GI50 (COLO 320DM) [nM] | solubility at 1 h, 200 µM (physchem) [µg/mL] | IC50 [3] [nM] | Structure (SMILES)
6.4 | 7.5 | 43.9 | 4200 | 0.8 (≈ 2.07 µM) | – | O=C1Nc2cc(F)cc(F)c2C12CCN(c1nc3c(c(=O)[nH]1)CCCC3)CC2
16 | 15.6 | 454 | 10400 | 8.9 (≈ 21.4 µM) | – | O=c1[nH]c(N2CCC3(CC2)CNc2cccc(Br)c23)nc2c1CCCC2
5.8 | 4.7 | 31.1 | 2300 | 3.1 (≈ 8.41 µM) | – | O=C1Nc2cccc(F)c2C12CCN(c1nc3c(c(=O)[nH]1)CCCC3)CC2
11 | 12 | 369 | 15000 | 62.9 (≈ 171 µM) | – | O=C1Nc2cc(F)ccc2C12CCN(c1nc3c(c(=O)[nH]1)CCCC3)CC2
5.8 | 13.4 | 91.2 | 8800 | 1.9 (≈ 4.43 µM) | – | O=C1Nc2cccc(Br)c2C12CCN(c1nc3c(c(=O)[nH]1)CCCC3)CC2
16.8 | 26.8 | 496 | 20400 | 5.3 (≈ 14.1 µM) | – | N#Cc1cccc2c1C1(CCN(c3nc4c(c(=O)[nH]3)CCCC4)CC1)C(=O)N2
11.1 | 14.4 | 623 | 19900 | 1.8 (≈ 4.68 µM) | – | O=C1Nc2cc(Cl)ccc2C12CCN(c1nc3c(c(=O)[nH]1)CCCC3)CC2
5.3 | 7.1 | 533 | 21400 | 15.7 (≈ 37.4 µM) | – | O=C1Nc2cc(Cl)cc(Cl)c2C12CCN(c1nc3c(c(=O)[nH]1)CCCC3)CC2
10.2 | 4.9 | 21.5 | 5000 | 2.8 (≈ 7.28 µM) | – | O=C1Nc2cccc(Cl)c2C12CCN(c1nc3c(c(=O)[nH]1)CCCC3)CC2
